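Results reflect a 48-hour exposure of cells in 96-well plates to compound at five concentrations. TGI is the concentration that stops growth completely.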
How the values were obtained:
Experiment in all cases: NCI anticancer screen, dose series, 48 h
[1] = test system: UACC-62 melanoma
[2] = test system: HOP-92 NSCLC
[3] = test system: HCT-15 colon
[4] = test system: HL-60(TB) leukemia
[5] = test system: HT29 colon
[6] = test system: SN12C renal
[7] = test system: MALME-3M melanoma
[8] = test system: NCI/ADR-RES ovarian
[9] = test system: CAKI-1 renal
[10] = test system: OVCAR-4 ovarian
[11] = test system: LOX IMVI melanoma
[12] = test system: SNB-19 CNS
[13] = test system: IGROV1 ovarian
[14] = test system: SK-OV-3 ovarian
[15] = test system: K-562 leukemia
[16] = test system: HCC-2998 colon
[17] = test system: TK-10 renal
[18] = test system: COLO 205 colon
[19] = test system: PC-3 prostate
[20] = test system: SW-620 colon
[21] = test system: MDA-N
[22] = test system: U251 CNS
[23] = test system: 786-0 renal
[24] = test system: SR leukemia
[25] = test system: EKVX NSCLC
[26] = test system: OVCAR-5 ovarian
[27] = test system: SK-MEL-28 melanoma
[28] = test system: OVCAR-3 ovarian
[29] = test system: MDA-MB-435
[30] = test system: RPMI-8226 leukemia
[31] = test system: HS 578T breast
[32] = test system: SK-MEL-5 melanoma
[33] = test system: UO-31 renal
[34] = test system: NCI-H460 lung
[35] = test system: MOLT-4 leukemia
[36] = test system: BT-549 breast
[37] = test system: MCF7 breast
[38] = test system: NCI-H23 lung
[39] = test system: NCI-H226 lung
[40] = test system: T-47D breast
[41] = test system: CCRF-CEM leukemia
[42] = test system: A549 NSCLC
[43] = test system: SF-295 CNS
[44] = test system: SNB-75 CNS
[45] = test system: DU-145 prostate
[46] = test system: SF-268 CNS
[47] = test system: HCT-116 colon
[48] = test system: ACHN renal
[49] = test system: HOP-62 NSCLC
[50] = test system: OVCAR-8 ovarian
[51] = test system: KM12 colon
[52] = test system: MDA-MB-231 breast
[53] = test system: RXF 393 renal
[54] = test system: M14 melanoma
[55] = test system: NCI-H522 lung
[56] = test system: UACC-257 melanoma
[57] = test system: M19-MEL melanoma
[58] = test system: DLD-1 colon
[59] = test system: KM20L2 colon
[60] = test system: SF-539 CNS
[61] = test system: SNB-78 CNS
[62] = test system: HOP-18 NSCLC
[63] = test system: SK-MEL-2 melanoma
[64] = test system: A498 renal

Measured: TGI

CNC(=O)C1CCCN1C(=O)C(Cc1cnc[nH]1)NC(=O)C1CCC(=O)N1 (stereo not given)
not listed: [56] | [57] | [58] | [59] | [60] | [61] | [62] | [63] | [64]
> 100 µM: all other assays above

CCOC(=O)N[C@@H]1C2CC(=O)C(O2)[C@@H]1OC (stereo not given in full)
not listed: [8] | [19] | [21] | [29] | [31] | [36] | [37] | [40] | [45] | [52] | [64]
> 100 µM: all other assays above

C/C=N\n1c(C)c(C#N)c(C#N)c1N
not listed: [27] | [34] | [57] | [58] | [59] | [61] | [62]
> 100 µM: all other assays above

Source: PubChem BioAssay (NCI)
